This note sets out measurements from patent EP0091519A1, “Topical acylaminophenols” (Johnson & Johnson Products Inc., priority 1982, dated 1983).

The subject of assay [1] is arachidonic acid-induced erythema. Nature of the assay: Arachidonic acid-induced erythema in guinea pig ear skin (subjective score 0 to 3, area under response curve). Conditions: for Total Erythema: area under curve of average erythema score (0 to 3) over four days; for inhibition in vivo at 1 %: Cavia porcellus, versus contralateral vehicle-treated ear, read-out: % Re-duction (Total Erythema); for effect on AA-induced erythema (in words): topical application, 1% unless otherwise stated. It is filed as in vivo. Here is the method: (§1) The effect of selected compositions on cutaneous inflammation caused by topical application of arachidonic acid was evaluated. In addition to inflammation, the proliferative response of the epidermis treated with arachidonic acid and the compositions was evaluated. Fourteen acylaminophenols were studied. The drugs were dissolved in propylene glycol plus ethanol (30:70) and were used at 1% concentrations unless otherwise stated. Fourteen groups of five guinea pigs each served as the experimental subjects. The dorsal skin of both ears was treated once daily for four days (9:00 am) with 25 µl 1% solution of AA in propylene glycol/ethanol (30/70). Immediately after this application, one ear of each guinea pig was randomly chosen for application of 25 µl of the test compound, while the contralateral ear received the vehicle, alone. During the four-day experimental period, DNA synthesized was labeled by continuous administration of a radioactive'precursor, ^3H-thymidine (3 i.p. injections/day of 10µCi each). Erythema developing in response to topical AA was measured daily on a subjective scale of 0 to 3; where 0 = none,1= mild, 2 = moderate, and 3 = intense. The average erythema scores were plotted as a function of time, and areas under the response curves were determined for expression of total erythema. On the fifth day, animals were killed and six mm diameter circular samples of dorsal skin from the central portion of the treatment sites were harvested and solubilized in NCS® solubilizer. These tissue solutions were acidified and a simple fluor (diphenyloxazole in toluene) was added for determination of radioactivity by liquid scintillation counting. Radioactivity expressed as counts-per-minute (cpm) correlate with the amount of proliferative activity in the epidermis.

Assay [2] relates to arachidonic acid-induced epidermal proliferation. In words: Arachidonic acid-induced epidermal proliferation in guinea pig ear skin (3H-thymidine labelling, liquid scintillation counting). As to conditions: for cpm S.E.: 25 µl topical on ear once daily for four days after 1% AA, mean ± S.E.; for inhibition in vivo at 1 %: Cavia porcellus, 1% drug topical, versus contralateral vehicle-treated ear, * statistically significant, + not significant due to variability, read-out: % Re-duction (cpm, proliferation); for effect on AA-induced proliferation (in words): topical application, 1% unless otherwise stated. It is filed as in vivo. The protocol: as §1

[3] abbreviates: 1% drug in propylene glycol/ethanol (30:70), 6 mm skin sample on fifth day.

On to `CCCCCCCCCCCCCC(=O)Nc1ccc(O)cc1` [4-n-tetradecanoylaminophenol, reference compound], for which, in assay [1] (1% drug topical), the “Total Erythema” value is 3.8 and the inhibition in vivo at 1 % turned out to be 0%. The “effect on AA-induced erythema (in words)” value in assay [1] is “without substantial effect”. In assay [2] (setting [3]), the “cpm S.E.” value is recorded as 1681±296 cpm. In assay [2], the inhibition in vivo at 1 % amounted to 15.1% and the “effect on AA-induced proliferation (in words)” value is “without substantial effect”.

Consider `CC(=O)Nc1ccc(O)cc1` [Acetaminophen, acetamidophenol, reference compound], for which, in assay [1] (1% drug topical), the “Total Erythema” value worked out at 5.2 and the inhibition in vivo at 1 % was 0%. Further, the “effect on AA-induced erythema (in words)” value in assay [1] is “no significant effect”. The “cpm S.E.” value in assay [2] (setting [3]) turned out to be 3140±346 cpm. Also, in assay [2], the inhibition in vivo at 1 % was determined as 8% and the “effect on AA-induced proliferation (in words)” value is given as “no significant effect”.

In the case of `CCCCCCCCCC(=O)Nc1ccc(O)cc1` [4-n-decanoylaminophenol], in assay [1] (1% drug topical), the “Total Erythema” value came out at 2.0 and the inhibition in vivo at 1 % was 47.4%. In addition, the “effect on AA-induced erythema (in words)” value in assay [1] is “good activity”. In addition, the “cpm S.E.” value in assay [2] (setting [3]) was 1311± 48 cpm. Also, in assay [2], the inhibition in vivo at 1 % was 37.5% and the “effect on AA-induced proliferation (in words)” value is reported as “good activity”.

Take `CCCCCCCC(=O)Nc1ccc(O)cc1` [4-n-octanoylaminophenol]: in assay [1] (1% drug topical), the “Total Erythema” value is 2.7 and the inhibition in vivo at 1 % was 49%. Also, the “effect on AA-induced erythema (in words)” value in assay [1] is “good activity”. Moreover, in assay [2] (setting [3]), the “cpm S.E.” value is listed as 1589±361 cpm. For the same compound, in assay [2], the inhibition in vivo at 1 % was 39.1% and the “effect on AA-induced proliferation (in words)” value is reported as “good activity”.

Turning to `O=C(Nc1ccc(O)cc1)c1ccccc1` [4-benzoylaminophenol, reference compound], in assay [1] (1% drug topical), the “Total Erythema” value worked out at 3.8 and the inhibition in vivo at 1 % came out at 20.8%. In assay [1], the “effect on AA-induced erythema (in words)” value is “inactive”. In addition, the “cpm S.E.” value in assay [2] (setting [3]) came out at 2214±316 cpm. In assay [2], the inhibition in vivo at 1 % was found to be 4.2% and the “effect on AA-induced proliferation (in words)” value was “inactive”.

With `O=C(Nc1ccc(O)cc1)c1ccccc1O`, in assay [1] (1% drug topical), the “Total Erythema” value came out at 3.2 and the inhibition in vivo at 1 % is 41.8%. For the same compound, the “effect on AA-induced erythema (in words)” value in assay [1] is listed as “showed activity”. For the same compound, the “cpm S.E.” value in assay [2] (setting [3]) is 1532± 91 cpm. For the same compound, in assay [2], the inhibition in vivo at 1 % was 23.3% and the “effect on AA-induced proliferation (in words)” value is given as “showed activity”.

In the case of `CCCCCCCCCCCC(=O)Nc1ccc(O)cc1` [4-n-dodecanoylaminophenol], in assay [1] (1% drug topical), the “Total Erythema” value is 3.8 and the inhibition in vivo at 1 % came out at 29%. Besides, the “effect on AA-induced erythema (in words)” value in assay [1] is on record as “good activity”. For the same compound, the “cpm S.E.” value in assay [2] (setting [3]) was determined as 2487±368 cpm. In assay [2], the inhibition in vivo at 1 % is 29% and the “effect on AA-induced proliferation (in words)” value is recorded as “good activity”.

`CCCCCC(=O)Nc1ccc(O)cc1` [4-n-hexanoylaminophenol]: in assay [1] (1% drug topical), the “Total Erythema” value was 1.9 and the inhibition in vivo at 1 % worked out at 50%. Moreover, the “effect on AA-induced erythema (in words)” value in assay [1] was “good activity”. Besides, the “cpm S.E.” value in assay [2] (setting [3]) is on record as 1488±104 cpm. Also, in assay [2], the inhibition in vivo at 1 % is 28.3% and the “effect on AA-induced proliferation (in words)” value is on record as “good activity”.

As to `CCC(=O)Nc1ccc(O)cc1` [4-propionylaminophenol, reference compound], in assay [1] (1% drug topical), the “Total Erythema” value was 5.5 and the inhibition in vivo at 1 % was -14.6%. Besides, in assay [1], the “effect on AA-induced erythema (in words)” value is “without substantial effect”. Also, in assay [2] (setting [3]), the “cpm S.E.” value turned out to be 1777±251 cpm. Further, in assay [2], the inhibition in vivo at 1 % amounted to 2.6% and the “effect on AA-induced proliferation (in words)” value is given as “without substantial effect”.

On to `CCCCCCCCCCC(=O)Nc1ccc(O)cc1` [4-n-undecanoylaminophenol], for which, in assay [1] (1% drug topical), the “Total Erythema” value is listed as 2.1 and the inhibition in vivo at 1 % was found to be 38.2%. The “effect on AA-induced erythema (in words)” value in assay [1] is given as “good activity”. In addition, the “cpm S.E.” value in assay [2] (setting [3]) stood at 1380±205 cpm. Moreover, in assay [2], the inhibition in vivo at 1 % was found to be 37.3% and the “effect on AA-induced proliferation (in words)” value was “good activity”.

Regarding `CCCC(=O)Nc1ccc(O)cc1` [4-n-butyroylaminophenol, reference compound], in assay [1] (1% drug topical), the “Total Erythema” value was found to be 4.6 and the inhibition in vivo at 1 % amounted to 4.2%. Further, the “effect on AA-induced erythema (in words)” value in assay [1] is given as “without effect”. Also, the “cpm S.E.” value in assay [2] (setting [3]) is given as 2680±360 cpm. Also, in assay [2], the inhibition in vivo at 1 % was 27.8% and the “effect on AA-induced proliferation (in words)” value is on record as “significantly inhibited”.

Consider `CCCCCCC(=O)Nc1ccc(O)cc1` [4-n-heptanoylaminophenol], for which, in assay [1] (1% drug topical), the “Total Erythema” value was determined as 1.8 and the inhibition in vivo at 1 % is 47%. Besides, the “effect on AA-induced erythema (in words)” value in assay [1] is “good activity”. In addition, the “cpm S.E.” value in assay [2] (setting [3]) is reported as 1435± 77 cpm. In assay [2], the inhibition in vivo at 1 % was found to be 27.3% and the “effect on AA-induced proliferation (in words)” value was “good activity”.

As for `CCCCCCCCC(=O)Nc1ccc(O)cc1` [4-n-nonanoylaminophenol], in assay [1] (1% drug topical), the “Total Erythema” value is given as 2.1 and the inhibition in vivo at 1 % was 34.4%. Moreover, the “effect on AA-induced erythema (in words)” value in assay [1] is reported as “good activity”. In addition, the “cpm S.E.” value in assay [2] (setting [3]) was determined as 1472±135 cpm. In assay [2], the inhibition in vivo at 1 % was found to be 20.9% and the “effect on AA-induced proliferation (in words)” value was “good activity”.

As to `CCCCCCCCCCCCCCCC(=O)Nc1ccc(O)cc1` [4-n-hexadecanoylaminophenol, reference compound], the “Total Erythema” value in assay [1] (0.56% drug topical) is given as 4.8. In addition, in assay [1], the “effect on AA-induced erythema (in words)” value was “without substantial effect”. The “cpm S.E.” value in assay [2] (0.56% drug in propylene glycol/ethanol (30:70)) was 3275±463 cpm. Besides, the “effect on AA-induced proliferation (in words)” value in assay [2] is “without substantial effect”.
